Test results taken from US20260076974A1, “COMPOSITIONS FOR PREVENTING AND TREATING INFECTION COMPRISING AN ARTIFICIAL SWEETENER” (Brunel University London, priority 2022, published 2026).
Read-outs that look alike come from different tables or passages of the source.

Key:
[1] = tested on: A. baumannii gene expression; conditions: |logFC|>1 and p<.05
Experimental: Cells were spun down and washed in RNAlater to preserve mRNA. RNA was isolated using a Qiagen RNAeasy Kit with column DNAase digestion. RNA integrity was determined using a Bioanalyzer. Samples were further processed for RNA sequencing on an Illumina MiSeq with 12 million reads per sample. Quality control and adapter trimming was performed with bcl2fastq.

A. baumannii AB5075 [2] = tested on: A. baumannii AB5075; set-up: species or system Acinetobacter baumannii; conditions: ace-K dressing applied for 1 hour
Experimental: In this model, porcine skin was either burnt or lacerated and the wound infected with A. baumannii AB5075 and left for 3.5 hours to allow a biofilm to form. The dressing was applied for 1 hour and viable cells were collected after treatment. […] Samples were tested in biological triplicate with technical quadruplets.
(8% (w/w)), potassium tetraborate (3% (w/w)), and PVA (3% ((w/w)) were added into a beaker and mixed with deionized water. The mixture was placed in a water bath and heated at 80° C. for three hours with watch glass while being swirled with a stirring rod every 1 hour. Once hydrogels had been obtained, they were placed in a petri dish with custom-made moulds.

A. baumannii AB5075 [3] = experiment: Growth inhibition assay in LB medium (OD600); format: cell-based, Acinetobacter baumannii
[4] = tested on: A. baumannii colony biofilms
A. baumannii [5] = experiment: Crystal violet biofilm formation assay / minimum biofilm inhibition concentration; format: cell-based, Acinetobacter baumannii
Experimental: (§1) Biofilm formation is linked to 80% of hospital-associated infections and is a major factor in the routine failure of antibiotic therapy.
(§2) All samples were exposed to the artificial sweeteners in LB medium for 19 hours before crystal violet biofilm assay was performed. […] The data present the mean of three biological replicates±SD. *p≤0.05, *p≤0.001 versus the bacterial growth in control samples.
(§3) All samples were exposed to artificial sweeteners for 19 hours before crystal violet biofilm assay was performed.

[6] = tested on: P. aeruginosa colony biofilms
PpilA promoter = conditions: 0, […], 0.66% or […] ace-K, 2 h
Experimental: The expression from the PpilA promoter was measured using a miniTn7T-based insertion bearing a PpilA::gfp transcriptional fusion (AB5075/miniTn7T-zeo-pilA::gfpmut3). An AB5075/miniTn7T-zeo-gfpmut3 strain, bearing the empty miniTn7T backbone, was used as a control. […] Cultures were incubated for 2 h at 37° C., 180 rpm. Then, samples were withdrawn from the cultures, washed with PBS and eventually resuspended in PBS. Two technical repeats of each sample were allocated in a 96-well plate and their OD600 and GFP fluorescence (485 nm excitation, 535 nm emission) were measured. The fluorescence readings were normalised by their respective OD600 and the baseline fluorescence obtained from the empty transposon control was subtracted from that obtained with the strain bearing the PpilA::gfpmut3 the promoter fusion measurements.

P. aeruginosa PA14 [7] = conditions: established 18 hour biofilm, 8.85% ace-K, 24 hours
Experimental: (§4) Plates were incubated for 18 hours at 37° C. and 180 rpm to allow biofilms to form. Following incubation, growth medium was removed from the wells and biofilms were washed three times with 200 μL of sterile PBS to remove any unbound planktonic cells. […] Plates were incubated for a further 24 hours at 37° C. and 180 rpm. Following this treatment biofilms were stained with 0.1% crystal violet as detailed above. Reduction in biofilm was represented as a percentage reduction compared to the control.
(§5) To assess the ability of artificial sweeteners to disperse biofilms, overnight cultures were diluted in 96-well plates to OD600 0.5-0.1 in growth medium. Plates were incubated for 18 h at 37° C. and 180 rpm to allow biofilms to form. Following incubation growth medium was removed and wells washed three times with 200 μl of sterile PBS to remove any unattached cells. Fresh growth medium supplemented with artificial sweetener or an appropriate vehicle control was added to the wells. Plates were incubated for a further 24 h at 37° C. and 180 rpm. Following this treatment biofilms were stained with 0.1% crystal violet as detailed above. Biofilm dispersal was represented as a percentage reduction compared with the control.

A. baumannii AB5075 [8] = conditions: established 18 hour biofilm, 8.85% ace-K, 24 hours
Experimental: as §4, §5

E. coli NCTC 13476 = conditions: live cell imaging over time
Description: (§6) To visualise the localisation of these membrane bulges and to gain insight into the contents of the bulges, an E. coli MG1655 strain with labelled mCherry-Fis and CFP-FtsZ was used (FIG. 62CD). Fis is a small DNA-binding protein that binds to a large number of regions of the chromosome, allowing the visualisation of the […] in living cells. FtsZ is a component of the Z ring, showing future cell division sites.

A. baumannii cells = conditions: live cell imaging over time
Description: as §6

Staphylococcus aureus = conditions: […] ace-K versus LB control
P. aeruginosa PA14 [9] = experiment: Crystal violet biofilm formation assay / minimum biofilm inhibition concentration; format: cell-based, Pseudomonas aeruginosa
Experimental: as §1, §2, §3

A. baumannii [10] = tested on: A. baumannii
Description: Motility is a central facet of bacterial virulence and facilitates bacterial dissemination to the blood stream or other sites within an infected host. […] To validate the gene expression data, we performed twitching assays at a range of different concentrations.

[11] = tested on: Stenotrophomonas maltophilia
P. aeruginosa PA14 [12] = experiment: Growth inhibition assay in nutrient medium (OD600); format: cell-based, Pseudomonas aeruginosa
A. baumannii AB5075 [13] = conditions: […] ace-K (sub-MIC), two hours, compared to untreated control
Experimental: Cultures were incubated at 37° C. and 180 rpm shaking for two hours. Following incubation 10 μL of a 1 mg/mL DAPI solution and 10 μL of a 5 mg/mL solution of Nile Red were added to each flask before returning to the incubator for 30 mins. Once stained, cultures were centrifuged at 5000 rpm for five minutes and the supernatant discarded. Pellets were resuspended in 10 ml of sterile 4% formaldehyde in PBS and incubated in the dark for 30 mins to fix. Once fixed, samples were centrifuged at 5000 rpm and pellets were washed twice with 10 mL sterile PBS. After washing pellets were resuspended in 10 ml of sterile PBS and 10 μL of the cell suspension was spotted onto a glass slide and allowed to air dry in the dark. Three spots were prepared per flask.

A. baumannii AB5075 [14] = tested on: A. baumannii AB5075
Enterococcus faecalis = conditions: […] ace-K versus LB control
[15] = LB with sweetener plus Mg2+ and Ca2+
[16] = submerged in 8.85% (w/v) ace-K solution for 1 hour
[17] = surgical gauze soaked in 8.85% ace-K, 1 hour, compared to water-soaked dressing
[18] = LB with ace-K plus Mg2+ and Ca2+
[19] = 3% (w/v) sucralose, […] (w/v) ace-K, LB medium, 19 hours
[20] = in the presence of divalent cations (CaCl2 2 mM and MgSO4 1 mM)

Description for Klebsiella pneumoniae: N=3 biological triplicate, each with technical triplicates).

Q: With `CC1=CC(=O)[N-]S(=O)(=O)O1.[K+]` [ace-K, potassium salt of 6-methyl-1,2,3-oxathiazine-4 (3H)-one 2,2-dioxide] as the compound, how does the “number of genes significantly differentially expressed” value [1] read?
A: Its value is 464 genes.

Q: And the “log reduction in viable cells versus the water control” value (A. baumannii AB5075 [2]; burn model)?
A: Its value is 2.16 log.

Q: What about the “log reduction in viable cells versus the water control” value (A. baumannii AB5075 [2]; laceration model) of the same compound?
A: Its value is 0.5 log.

Q: What about the “concentration showing significant / effective growth inhibition” value (A. baumannii AB5075 [3]) of the same compound?
A: Its value is ≥ 0.89%.

Q: What about the “effect of Mg2+ and Ca2+ cation supplementation on the growth inhibitory effect” value (shortened to “effect … on the growth inhibitory effect”) (A. baumannii AB5075 [3]; [15]) of the same compound?
A: The value was “at least partially reverse”.

Q: And the “bacterial growth in the presence of sweetener” value (A. baumannii AB5075 [3]; […] sweetener, 19 hours, LB medium)?
A: Its value is “inhibit the growth”.

Q: And the “concentration at which growth inhibition plateaus; no growth above” value (A. baumannii AB5075 [3]; ace-K 0.09-7.08%)?
A: Its value is “around 5%”.

Q: And the “number of viable bacteria within the biofilm after ace-K wash” value [4, 16]?
A: The value was “significant reduction”.

Q: What about the “bacteria numbers after ace-K augmented dressing” value [4, 17] of the same compound?
A: The value was “significant reductions”.

Q: What about the “effect … on the growth inhibitory effect” value (Enterobacter cloacae; [18]) of the same compound?
A: Its value is “at least partially reverse”.

Q: And the “growth in LB including ace-K” value (Enterobacter cloacae; […] ace-K versus LB control)?
A: Its value is “significantly inhibits the growth”.

Q: What about the “concentration with significant impact on / inhibition of biofilm formation” value (A. baumannii [5]) of the same compound?
A: The value was 0.09%.

Q: What about the biofilm formation (A. baumannii [5]; [19]) of the same compound?
A: The biofilm formation was “significantly inhibit biofilm formation”.

Q: And the “number of viable bacteria within the biofilm after ace-K wash” value [6, 16]?
A: The value was “significant reduction”.

Q: What about the “bacteria numbers after ace-K augmented dressing” value [6, 17] of the same compound?
A: Its value is “significant reductions”.

Q: And the “effect … on the growth inhibitory effect” value (Klebsiella pneumoniae; [18])?
A: Its value is “at least partially reverse”.

Q: And the “growth in LB including ace-K” value (Klebsiella pneumoniae; […] ace-K versus LB control)?
A: The value was “significantly inhibits the growth”.

Q: What about the “pilA expression (GFP fluorescence normalised by OD600)” value (PpilA promoter) of the same compound?
A: The value was “clear dose dependent response”.

Q: And the “effect … on the growth inhibitory effect” value (E. coli; [18])?
A: Its value is “at least partially reverse”.

Q: And the “growth in LB including ace-K” value (E. coli; […] ace-K versus LB control)?
A: The value was “significantly inhibits the growth”.

Q: And the “reduction of total biofilm biomass compared to the control” value (P. aeruginosa PA14 [7])?
A: The value was 69.7%.

Q: What about the “reduction of total biofilm biomass compared to the control” value (A. baumannii AB5075 [8]) of the same compound?
A: Its value is 48.8%.

Q: And the “cell morphology upon ace-K exposure” value (E. coli NCTC 13476)?
A: Its value is “filamented, extending to many times their original size before eventually, forming characteristic membrane bulges and ultimately lysing”.

Q: And the “cell morphology upon ace-K exposure” value (A. baumannii cells)?
A: The value was “stop dividing and lose structural integrity, swelling in size rapidly”.

Q: And the “growth in LB including ace-K” value (Staphylococcus aureus)?
A: The value was “minor reduction in growth in the presence of ace-K, but this was not significant”.

Q: And the biofilm formation (P. aeruginosa PA14 [9]; [19])?
A: Its biofilm formation is “significantly inhibit biofilm formation”.

Q: And the “concentration resulting in almost complete abolition of biofilm formation” value (P. aeruginosa PA14 [9]; 19 hours exposure)?
A: The value was 1.77%.

Q: What about the “concentration with significant reduction in bacterial twitching motility” value (A. baumannii [10]) of the same compound?
A: Its value is ≥ 0.33%.

Q: And the “twitching motility over increasing concentrations” value (A. baumannii [10]; AB5075, ace-K)?
A: Its value is “dose-dependent decrease”.

Q: What about the “twitching motility over increasing concentrations” value (A. baumannii [10]; strains AB0057 and BAA 747, ace-K) of the same compound?
A: The value was “dose-dependent decrease”.

Q: And the “effect … on the growth inhibitory effect” value [11, 18]?
A: The value was “at least partially reverse”.

Q: What about the “growth in LB including ace-K” value ([11]; […] ace-K versus LB control) of the same compound?
A: The value was “significantly inhibits the growth”.

Q: And the “concentration showing significant / effective growth inhibition” value (P. aeruginosa PA14 [12])?
A: Its value is ≥ 0.89%.

Q: And the “effect … on the growth inhibitory effect” value (P. aeruginosa PA14 [12]; [15])?
A: Its value is “at least partially reverse”.

Q: And the “bacterial growth in the presence of sweetener” value (P. aeruginosa PA14 [12]; […] sweetener, 19 hours, 37° C.)?
A: The value was “inhibit the growth”.

Q: What about the “concentration at which growth inhibition plateaus; no growth above” value (P. aeruginosa PA14 [12]; ace-K 0.09-7.08%) of the same compound?
A: Its value is “around 5%”.

Q: And the nuclear dye uptake (A. baumannii AB5075 [13])?
A: Its nuclear dye uptake is “significant increases”.

Q: What about the cell viability (A. baumannii AB5075 [14]; in the presence of cations when supplementing with ace-K) of the same compound?
A: Its cell viability is “not affected”.

Q: What about the “concentration reaching transformation abolition” value (A. baumannii AB5075 [14]; [20]) of the same compound?
A: The value was ≥ 0.66%.

Q: And the “concentration with significant drop in transformability” value (A. baumannii AB5075 [14]; [20])?
A: The value was 0.33%.

Q: And the “concentration at which transformation is completely abolished” value (A. baumannii AB5075 [14]; without added cations)?
A: The value was ≥ 0.66%.

Q: And the “growth in LB including ace-K” value (Enterococcus faecalis)?
A: The value was “significantly inhibits the growth”.
